Measurements as given in patent publication US20070282007A1, “TREATMENT OF PAIN DISORDERS WITH trans 4-(3,4-DICHLOROPHENYL)-1,2,3,4-TETRAHYDRO-1-NAPHTHALENAMINE AND ITS FORMAMIDE” (SEPRACOR INC., priority 2006, published 2007).
Where two headings read alike, the source gives them in different places.

How the values were obtained:
[1] = target: T1, M5 (Homo sapiens, UniProt P08912); test: In vitro radioligand binding assay, M5
T1 sequence (P08912 1-532): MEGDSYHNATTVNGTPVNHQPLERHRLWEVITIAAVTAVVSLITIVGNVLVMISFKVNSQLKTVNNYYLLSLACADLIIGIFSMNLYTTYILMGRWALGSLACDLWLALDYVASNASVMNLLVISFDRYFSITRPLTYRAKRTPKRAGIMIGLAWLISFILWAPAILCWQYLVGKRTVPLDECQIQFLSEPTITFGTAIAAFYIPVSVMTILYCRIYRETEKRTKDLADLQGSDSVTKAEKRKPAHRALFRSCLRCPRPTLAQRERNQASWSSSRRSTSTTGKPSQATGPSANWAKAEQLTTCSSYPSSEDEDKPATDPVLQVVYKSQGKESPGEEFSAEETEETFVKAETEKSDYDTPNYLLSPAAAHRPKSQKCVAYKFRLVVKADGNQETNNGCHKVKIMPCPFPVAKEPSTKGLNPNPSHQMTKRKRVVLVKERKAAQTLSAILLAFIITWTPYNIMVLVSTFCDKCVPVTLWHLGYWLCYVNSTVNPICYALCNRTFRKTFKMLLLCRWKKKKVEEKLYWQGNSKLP

[2] = test system: Long-Evans derived rats; test: Spontaneous locomotor activity study; format: in vivo, rat; conditions: mean ± SEM
Experimental: The effects on locomotor activity were studied in Long-Evans derived rats following protocol outlined in Dews P., Br. J. Pharmacol., 8: 46 (1953).
This effect was still evident 2 hours following drug administration. On the basis of these studies, CNS effects and long duration of action may be anticipated at sufficient clinical doses.

[3] = target: M2 (Homo sapiens, UniProt P08172); test: In vitro radioligand binding assay, M2
M2, sequence (P08172 whole entry): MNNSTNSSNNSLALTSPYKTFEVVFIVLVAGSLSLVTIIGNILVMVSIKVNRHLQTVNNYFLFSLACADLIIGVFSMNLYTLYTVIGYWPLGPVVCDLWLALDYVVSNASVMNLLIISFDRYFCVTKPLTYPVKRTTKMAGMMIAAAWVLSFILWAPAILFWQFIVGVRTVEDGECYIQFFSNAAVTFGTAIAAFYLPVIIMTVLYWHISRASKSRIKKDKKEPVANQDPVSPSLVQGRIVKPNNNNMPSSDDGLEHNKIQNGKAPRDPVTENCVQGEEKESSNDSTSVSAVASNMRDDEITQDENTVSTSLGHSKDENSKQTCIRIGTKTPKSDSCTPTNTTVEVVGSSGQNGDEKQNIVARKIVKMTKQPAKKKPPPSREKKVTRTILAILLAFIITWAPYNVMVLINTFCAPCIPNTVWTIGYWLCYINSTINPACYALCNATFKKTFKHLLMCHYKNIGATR

[4] = test system: Long-Evans derived rats; test: Porsolt forced swim test; format: in vivo, rat; conditions: for Mean Immobility Time (% of Total) ± SEM, Day 2 Study: 3 administrations
Experimental: Performance in the Porsolt forced swim test was evaluated for sertraline and Compound P following protocols outlined in Porsolt R. D., et al., Arch. Int. Pharmacodyn., 229: 327 ([…]).
The Porsolt forced swim test is a model of “behavioral despair”, which has been used as an in vivo model for assessing potential antidepressant-like activity. Both test articles were dissolved in physiological saline (vehicle) and administered intraperitoneally. […] Long-Evans derived rats were used.

[5] = target: 5-HT1B (Homo sapiens, UniProt P28222); test: In vitro radioligand binding assay, 5-HT1B
5-HT1B, sequence (P28222 whole entry, species assumed): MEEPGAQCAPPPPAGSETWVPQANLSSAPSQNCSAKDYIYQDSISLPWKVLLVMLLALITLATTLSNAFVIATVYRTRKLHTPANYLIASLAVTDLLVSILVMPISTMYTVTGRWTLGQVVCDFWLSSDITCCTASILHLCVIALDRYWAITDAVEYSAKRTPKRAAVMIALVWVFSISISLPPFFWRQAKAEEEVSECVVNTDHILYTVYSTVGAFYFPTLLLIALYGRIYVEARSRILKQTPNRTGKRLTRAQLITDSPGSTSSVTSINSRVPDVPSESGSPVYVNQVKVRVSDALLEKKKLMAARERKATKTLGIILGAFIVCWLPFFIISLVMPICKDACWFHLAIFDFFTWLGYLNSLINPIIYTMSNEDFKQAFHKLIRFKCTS

[6] = target: T2, 5-HT1A (Homo sapiens, UniProt P08908); test: In vitro radioligand binding assay, 5-HT1A
T2 sequence (P08908 1-422): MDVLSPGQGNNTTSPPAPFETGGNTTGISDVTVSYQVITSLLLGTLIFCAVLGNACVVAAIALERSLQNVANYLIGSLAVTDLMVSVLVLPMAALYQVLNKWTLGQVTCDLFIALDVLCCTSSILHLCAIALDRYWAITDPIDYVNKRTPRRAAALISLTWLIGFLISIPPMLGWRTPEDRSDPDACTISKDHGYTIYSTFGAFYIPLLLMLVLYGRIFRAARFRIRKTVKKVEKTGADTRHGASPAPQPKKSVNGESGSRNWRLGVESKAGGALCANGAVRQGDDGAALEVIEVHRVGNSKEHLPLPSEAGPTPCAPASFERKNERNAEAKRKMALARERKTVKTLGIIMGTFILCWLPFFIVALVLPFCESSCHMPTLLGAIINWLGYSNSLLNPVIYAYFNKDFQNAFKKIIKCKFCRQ

[7] = target: D1 (Homo sapiens, UniProt P21728); test: In vitro radioligand binding assay, D1
D1, sequence (P21728 whole entry): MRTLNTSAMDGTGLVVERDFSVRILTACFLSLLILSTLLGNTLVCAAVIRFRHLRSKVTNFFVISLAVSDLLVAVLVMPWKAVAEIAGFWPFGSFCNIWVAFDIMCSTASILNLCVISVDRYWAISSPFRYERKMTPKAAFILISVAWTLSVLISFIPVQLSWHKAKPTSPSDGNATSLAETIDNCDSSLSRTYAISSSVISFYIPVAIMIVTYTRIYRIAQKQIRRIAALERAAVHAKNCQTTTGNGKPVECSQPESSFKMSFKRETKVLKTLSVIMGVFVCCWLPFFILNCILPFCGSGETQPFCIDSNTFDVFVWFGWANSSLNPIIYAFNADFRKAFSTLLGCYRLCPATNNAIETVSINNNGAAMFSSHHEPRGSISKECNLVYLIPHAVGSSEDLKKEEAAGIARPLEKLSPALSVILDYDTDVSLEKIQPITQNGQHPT

[8] = target: 5-HT2C (Homo sapiens, UniProt P28335); test: In vitro radioligand binding assay, 5-HT2C
5-HT2C, sequence (P28335 33-458, species assumed): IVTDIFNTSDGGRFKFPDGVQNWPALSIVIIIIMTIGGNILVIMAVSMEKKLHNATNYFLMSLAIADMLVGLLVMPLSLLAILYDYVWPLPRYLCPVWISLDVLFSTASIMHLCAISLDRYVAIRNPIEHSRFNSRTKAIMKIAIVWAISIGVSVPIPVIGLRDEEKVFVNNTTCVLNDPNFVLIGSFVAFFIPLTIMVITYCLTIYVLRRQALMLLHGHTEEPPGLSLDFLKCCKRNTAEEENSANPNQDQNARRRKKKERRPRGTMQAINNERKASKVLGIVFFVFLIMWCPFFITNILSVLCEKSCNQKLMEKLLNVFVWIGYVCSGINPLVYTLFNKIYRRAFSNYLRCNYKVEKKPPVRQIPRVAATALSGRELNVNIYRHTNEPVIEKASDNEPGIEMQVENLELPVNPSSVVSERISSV

[9] = target: hERG channel (Homo sapiens, UniProt Q12809); test: hERG channel current in stably transfected HEK293 cells
hERG channel, sequence (Q12809 whole entry): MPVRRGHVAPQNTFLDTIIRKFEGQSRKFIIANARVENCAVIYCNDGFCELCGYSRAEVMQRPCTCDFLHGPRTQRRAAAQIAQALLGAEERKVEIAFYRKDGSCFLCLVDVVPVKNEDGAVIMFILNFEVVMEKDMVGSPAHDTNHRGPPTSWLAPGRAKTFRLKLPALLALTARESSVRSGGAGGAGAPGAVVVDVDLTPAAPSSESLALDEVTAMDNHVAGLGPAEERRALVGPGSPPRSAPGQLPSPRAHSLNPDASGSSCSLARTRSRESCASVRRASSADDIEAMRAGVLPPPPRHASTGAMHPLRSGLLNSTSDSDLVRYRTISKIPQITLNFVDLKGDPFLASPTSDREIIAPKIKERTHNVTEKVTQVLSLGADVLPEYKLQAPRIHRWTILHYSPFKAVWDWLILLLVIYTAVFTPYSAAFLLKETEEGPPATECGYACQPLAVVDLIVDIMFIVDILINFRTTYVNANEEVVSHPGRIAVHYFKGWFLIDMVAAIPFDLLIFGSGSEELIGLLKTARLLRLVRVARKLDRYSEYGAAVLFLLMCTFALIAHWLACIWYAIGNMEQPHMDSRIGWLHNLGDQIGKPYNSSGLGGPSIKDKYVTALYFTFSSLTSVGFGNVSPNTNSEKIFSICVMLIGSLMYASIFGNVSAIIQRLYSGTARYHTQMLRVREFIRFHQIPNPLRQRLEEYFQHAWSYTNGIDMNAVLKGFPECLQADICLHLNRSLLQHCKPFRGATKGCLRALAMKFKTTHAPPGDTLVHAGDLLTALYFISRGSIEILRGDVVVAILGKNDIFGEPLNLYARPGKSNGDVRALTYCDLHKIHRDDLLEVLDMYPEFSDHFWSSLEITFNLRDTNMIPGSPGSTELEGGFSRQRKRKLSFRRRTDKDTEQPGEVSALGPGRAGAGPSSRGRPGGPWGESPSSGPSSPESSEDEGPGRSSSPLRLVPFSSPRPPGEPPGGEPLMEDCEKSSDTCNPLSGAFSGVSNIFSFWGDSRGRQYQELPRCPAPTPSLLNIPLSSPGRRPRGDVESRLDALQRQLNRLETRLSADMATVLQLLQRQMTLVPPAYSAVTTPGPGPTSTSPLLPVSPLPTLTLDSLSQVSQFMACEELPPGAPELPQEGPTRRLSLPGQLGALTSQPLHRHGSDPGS
Experimental: Studies were conducted to determine effects on IKr, the rapidly activating delayed rectifier cardiac potassium current in the human heart. […] In this assay system, HERG channel current serves as a surrogate for IKr.

[10] = test system: Beagle dogs; test: Cardiovascular safety study in conscious telemetered dogs; format: in vivo; conditions: single oral doses 0.5, 1.5 and 5 mg/kg
Experimental: There were four animals/compound and each animal within the treatment group was exposed to the three doses (plus a empty capsule control), in a dose ramp-up manner with a minimum of 72 hours between doses.

[11] = target: T3, Norepinephrine (NE) uptake (Rattus norvegicus, UniProt Q63380); test: Functional uptake of radiolabeled NE into synaptosomes from rat hypothalamus; format: biochemical
T3 construct: from tissue; host or cells: synaptosomes from rat hypothalamus
T3 sequence (Q63380 1-617): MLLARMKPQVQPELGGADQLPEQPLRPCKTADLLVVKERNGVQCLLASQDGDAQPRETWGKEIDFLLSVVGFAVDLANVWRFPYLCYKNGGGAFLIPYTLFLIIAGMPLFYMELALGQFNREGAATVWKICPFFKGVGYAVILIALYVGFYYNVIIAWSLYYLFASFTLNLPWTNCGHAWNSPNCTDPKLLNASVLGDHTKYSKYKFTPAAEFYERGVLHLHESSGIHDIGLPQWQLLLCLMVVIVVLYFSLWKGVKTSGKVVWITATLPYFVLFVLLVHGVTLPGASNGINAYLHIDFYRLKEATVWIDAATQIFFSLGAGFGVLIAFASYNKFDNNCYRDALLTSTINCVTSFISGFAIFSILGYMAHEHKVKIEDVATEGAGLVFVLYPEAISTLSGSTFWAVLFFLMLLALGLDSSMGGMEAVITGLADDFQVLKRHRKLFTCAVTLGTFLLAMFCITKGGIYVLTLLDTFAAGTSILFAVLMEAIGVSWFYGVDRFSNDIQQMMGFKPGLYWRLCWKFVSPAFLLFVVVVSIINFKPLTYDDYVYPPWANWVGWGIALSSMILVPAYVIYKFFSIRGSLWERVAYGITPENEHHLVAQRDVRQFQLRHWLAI
Experimental: The 5-HT and NE assays were performed essentially as outlined in Perovic S. & Müller W. E. G., Arzneim.-Forsch.

[12] = target: B2 (Homo sapiens, UniProt P30411); test: In vitro radioligand binding assay, B2
B2, sequence (P30411 whole entry): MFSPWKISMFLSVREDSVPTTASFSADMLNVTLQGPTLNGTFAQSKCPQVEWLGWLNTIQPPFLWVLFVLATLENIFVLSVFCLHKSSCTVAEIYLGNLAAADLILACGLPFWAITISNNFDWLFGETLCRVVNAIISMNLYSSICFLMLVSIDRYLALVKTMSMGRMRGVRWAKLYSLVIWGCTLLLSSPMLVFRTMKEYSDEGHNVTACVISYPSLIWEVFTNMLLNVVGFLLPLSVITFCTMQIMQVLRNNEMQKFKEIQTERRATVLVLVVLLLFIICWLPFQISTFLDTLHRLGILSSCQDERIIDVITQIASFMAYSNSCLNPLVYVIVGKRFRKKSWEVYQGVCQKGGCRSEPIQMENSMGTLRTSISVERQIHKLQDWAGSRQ

[13] = target: Ca^2+ Channel Verapamil Site; test: In vitro radioligand binding assay, Ca2+ channel verapamil site
[14] = target: H2 (Homo sapiens, UniProt P25021); test: In vitro radioligand binding assay, H2
H2, sequence (P25021 whole entry): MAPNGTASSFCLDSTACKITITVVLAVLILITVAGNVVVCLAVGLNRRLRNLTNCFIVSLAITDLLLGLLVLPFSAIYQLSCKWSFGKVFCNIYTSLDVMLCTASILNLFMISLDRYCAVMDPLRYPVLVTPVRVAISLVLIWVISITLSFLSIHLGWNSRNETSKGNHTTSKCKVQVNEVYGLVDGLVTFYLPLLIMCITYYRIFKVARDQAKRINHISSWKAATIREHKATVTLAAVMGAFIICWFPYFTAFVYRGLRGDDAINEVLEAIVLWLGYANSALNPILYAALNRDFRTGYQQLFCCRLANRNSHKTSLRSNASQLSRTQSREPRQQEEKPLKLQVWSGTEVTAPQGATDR

[15] = target: Na^+ Channel Site 2; test: In vitro radioligand binding assay, Na+ channel site 2

CN[C@H]1CC[C@@H](c2ccc(Cl)c(Cl)c2)c2ccccc21 [Sertraline, (1S,4S)-cis 4-(3,4-dichlorophenyl)-1,2,3,4-tetrahydro-N-methyl-1-napthalenamine, reference compound]
Ki ([1]; read-out: Ki, M5): 2 µM | Total Activity Counts, 71–80 Minutes ([2]; 2.5 mg/kg single i.p. dose): 34 ± 9 | Total Activity Counts, 91–100 Minutes ([2]; 2.5 mg/kg single i.p. dose): 25 ± 9 | Total Activity Counts, 111–120 Minutes ([2]; 2.5 mg/kg single i.p. dose): 30 ± 10 | Total Activity Counts, Total 1st Hour ([2]; 2.5 mg/kg single i.p. dose): 559 ± 57^2 | Total Activity Counts, Total 2nd Hour ([2]; 2.5 mg/kg single i.p. dose): 211 ± 60 | Total Activity Counts, 71–80 Minutes ([2]; 5.0 mg/kg single i.p. dose): 32 ± 11 | Total Activity Counts, 91–100 Minutes ([2]; 5.0 mg/kg single i.p. dose): 14 ± 9 | Total Activity Counts, 111–120 Minutes ([2]; 5.0 mg/kg single i.p. dose): 16 ± 11 | Total Activity Counts, Total 1st Hour ([2]; 5.0 mg/kg single i.p. dose): 327 ± 55 | Total Activity Counts, Total 2nd Hour ([2]; 5.0 mg/kg single i.p. dose): 95 ± 41 | Ki [3]: 3.7 µM | Mean Immobility Time (% of Total) ± SEM, Day 2 Study ([4]; 2.5 mg/kg i.p.): 86 ± 3 % of Total | Mean Immobility Time (% of Total) ± SEM, Day 4 Study ([4]; 2.5 mg/kg i.p., 7 administrations): 78 ± 3 % of Total | Mean Immobility Time (% of Total) ± SEM, Day 2 Study ([4]; 5.0 mg/kg i.p.): 77 ± 2 % of Total | Mean Immobility Time (% of Total) ± SEM, Day 4 Study ([4]; 5.0 mg/kg i.p., 7 administrations): 64 ± 2 % of Total | Mean Immobility Time (% of Total) ± SEM, Day 2 Study ([4]; 10.0 mg/kg i.p.): 72 ± 3 % of Total | Mean Immobility Time (% of Total), Day 4 Study ([4]; 10.0 mg/kg i.p., 7 administrations, error is std dev (N = 2)): 70 ± 4 % of Total | Ki [5]: 8.5 µM | Ki [6]: 2.4 µM | Ki [7]: 1600 nM | Ki [8]: 5.6 µM | IC50 [9]: 1100 nM | effect on heart rate, blood pressure or ECG parameters (including QTc) [10]: no effect

CN(C)CCCC1(c2ccc(F)cc2)OCc2cc(C#N)ccc21 (centres unmarked) [Citalopram]
Ki ([1]; read-out: Ki, M5): 29 µM | IC50 [11]: 7.9 µM | Ki [6]: 15 µM | Ki [12]: > 100 µM

COc1ccc(C(CN(C)C)C2(O)CCCCC2)cc1 (centres unmarked) [Venlafaxine]
Ki [1]: > 100 µM | Ki [13]: 4.8 µM | Ki [14]: 89 µM | Ki [15]: 12 µM
